Experimental data published in ChEMBL document CHEMBL3108669, “Modulation of reactive oxygen species photogeneration of bacteriopheophorbide a derivatives by exocyclic E-ring opening and charge modifications” (J Med Chem, 2014).

Tests used:
Type in all cases: physicochemical
[1] = Induction of ROS generation in water/cremophor/DMF solution by AUR-based fluorescence assay; conditions: buffer
[2] = Induction of ROS generation in MeOH/PBS solution by SOSG-based fluorescence assay; conditions: buffer
[3] = Induction of ROS generation in RPMI-1640 cell culture media/DMSO/cremophor solution by AUR-based fluorescence assay
[4] = Induction of ROS generation in RPMI-1640 cell culture media/DMSO/cremophor solution by SOSG-based fluorescence assay
[5] = Induction of ROS generation in MeOH/PBS solution by AUR-based fluorescence assay; conditions: buffer
[6] = Induction of ROS generation in water/cremophor/DMF solution by SOSG-based fluorescence assay; conditions: buffer

Measured: Activity

CC[C@H]1c2cc3[nH]c4c(c3C)C(=O)[C@H](C(=O)OC)c4c3nc(cc4[nH]c(cc(n2)[C@@H]1C)c(C(C)=O)c4C)[C@@H](C)[C@@H]3CCC(=O)NCCS(=O)(=O)O
Active: [1] | [2] | [3] | [4] | [5] | [6]

CC[C@H]1c2cc3[nH]c(c(CC(=O)OC)c4nc(cc5[nH]c(cc(n2)[C@@H]1C)c(C(C)=O)c5C)[C@@H](C)[C@@H]4CCC(=O)NCCS(=O)(=O)O)c(C(=O)NCCS(=O)(=O)O)c3C
Active: [1] | [2] | [3] | [4] | [5] | [6]

CC[C@H]1c2cc3[nH]c4c(c3C)C(=O)[C@H](C(=O)OC)c4c3nc(cc4[nH]c(cc(n2)[C@@H]1C)c(C(C)=O)c4C)[C@@H](C)[C@@H]3CCC(=O)OCC[N+](C)(C)C
Active: [1] | [2] | [3] | [4] | [5] | [6]

CC[C@H]1c2cc3[nH]c(c(CC(=O)OC)c4nc(cc5[nH]c(cc(n2)[C@@H]1C)c(C(C)=O)c5C)[C@@H](C)[C@@H]4CCC(=O)OCC[N+](C)(C)C)c(C(=O)NCCS(=O)(=O)O)c3C
Active: [1] | [2] | [3] | [4] | [5] | [6]

CC[C@H]1c2cc3[nH]c4c(c3C)C(=O)[C@H](C(=O)OC)c4c3nc(cc4[nH]c(cc(n2)[C@@H]1C)c(C(C)=O)c4C)[C@@H](C)[C@@H]3CCC(=O)OC
Active: [1] | [2] | [3] | [4] | [5] | [6]

CC[C@H]1c2cc3[nH]c(c(CC(=O)OC)c4nc(cc5[nH]c(cc(n2)[C@@H]1C)c(C(C)=O)c5C)[C@@H](C)[C@@H]4CCC(=O)OC)c(C(=O)NCCS(=O)(=O)O)c3C
Active: [1] | [2] | [3] | [4] | [5] | [6]

CC[C@H]1c2cc3[nH]c4c(c3C)C(=O)[C@H](C(=O)OC)c4c3nc(cc4[nH]c(cc(n2)[C@@H]1C)c(C(C)=O)c4C)[C@@H](C)[C@@H]3CCC(=O)O
Active: [1] | [2] | [3] | [4] | [5] | [6]

CC[C@H]1c2cc3[nH]c(c(CC(=O)OC)c4nc(cc5[nH]c(cc(n2)[C@@H]1C)c(C(C)=O)c5C)[C@@H](C)[C@@H]4CCC(=O)O)c(C(=O)NCCS(=O)(=O)O)c3C
Active: [1] | [2] | [3] | [4] | [5] | [6]
